According to patent US9359398B2, “Compounds for immunoproteasome inhibition” (Onyx Therapeutics, Inc., priority 2010, dated 2016):

Assays:
immunoproteasome (L7) = immunoproteasome (L7) (Homo sapiens, UniProt P28062); experiment: Enzyme kinetic assay of chymotrypsin-like (CT-L) activity, isolated 20S immunoproteasome prep; assay type: biochemical; settings: for EC50 ratio (B5/L7): 20S ratio: EC50 constitutive / EC50 immunoproteasome, greater than one = prefers immunoproteasome
From the text: (§1) This can be done using enzyme kinetic assays such as those disclosed in U.S. application Ser. No. 09/569,748, Example 2 and Stein et al., Biochem. […] A ratio of less than one denotes the molecule inhibits the CT-L activity of the constitutive proteasome better than that of the immunoproteasome. Ratios greater than one signifies the molecule inhibits chymotrypsin-like activity of the immunoproteasome better than that of the constitutive proteasome.

[1] = target: constitutive proteasome (B5) (Homo sapiens, UniProt P28074); experiment: Enzyme kinetic assay of chymotrypsin-like (CT-L) activity, isolated 20S constitutive proteasome prep; assay type: biochemical; settings: isolated 20S proteasome prep with greater than 90% constitutive proteasome subunits
From the text: as §1

EC50 ratio (B5/L7) (immunoproteasome (L7)) | EC50 for constitutive proteasome (B5) [1] | EC50 for immunoproteasome (L7) (immunoproteasome (L7); CT-L activity, isolated 20S proteasome prep with greater than 90% immunoproteasome subunits) | SMILES
17.04 | – | – | C[C@H](NC(=O)CN1CCOCC1)C(=O)N[C@@H](Cc1ccc(O)cc1)C(=O)N[C@@H](Cc1ccccc1)C(=O)[C@@]1(C)CO1
– | Inactive | Inactive | CC(C)C[C@H](NC(=O)[C@H](Cc1ccccc1)NC(=O)c1cnccn1)C(=O)[C@@]1(C)CO1
6.49 | – | – | C[C@@H](NC(=O)CN1CCOCC1)C(=O)N[C@@H](Cc1c[nH]c2ccccc12)C(=O)N[C@@H](Cc1ccccc1)B(O)O
18.34 | – | – | C[C@H](NC(=O)CN1CCOCC1)C(=O)N[C@@H](Cc1ccc(O)cc1)C(=O)N[C@@H](Cc1ccccc1)B(O)O
>>1.0 | Inactive | – | C[C@@H](NC(=O)CN1CCOCC1)C(=O)N[C@@H](Cc1c[nH]c2ccccc12)C(=O)N[C@@H](Cc1ccccc1)C(=O)[C@@]1(C)CO1

SMILES | EC50 ratio (B5/L7) (immunoproteasome (L7)) | EC50 for constitutive proteasome (B5) [1] | EC50 for immunoproteasome (L7) (immunoproteasome (L7); CT-L activity, isolated 20S proteasome prep with greater than 90% immunoproteasome subunits)
CC(C)C[C@H](NC(=O)[C@H](Cc1ccccc1)NC(=O)[C@H](CC(C)C)NC(=O)[C@H](CCc1ccccc1)NC(=O)CN1CCOCC1)B(O)O | 1.10 | – | –
